From patent EP2027081B1, “THERAPEUTIC PROSTAGLANDIN COMPOUNDS FOR THE TREATMENT OF GLAUCOMA” (ALLERGAN, INC., priority 2006, dated 2007)
Read-outs that look alike come from different tables or passages of the source.

Columns and labels:
[1] = target: T1, hEP2/Gqs5 (Homo sapiens, UniProt P43116); experiment: FLIPR calcium signal study, HEK-293(EBNA) cells; type: cell-based
T1 construct: expressed in transfected cells; host or cells: HEK-293(EBNA)
Experimental: (§1) Cells were seeded at a density of 5x10^4 cells per well in Biocoat® Poly-D-lysine-coated black-wall, clear-bottom 96-well plates (Becton-Dickinson) and allowed to attach overnight in an incubator at 37 °C. Cells were then washed two times with HBSS-HEPES buffer (Hanks Balanced Salt Solution without bicarbonate and phenol red, 20 mM HEPES, pH 7.4) using a Denley Cellwash plate washer (Labsystems). After 45 minutes of dye-loading in the dark, using the calcium-sensitive dye Fluo-4 AM at a final concentration of 2 µM, plates were washed four times with HBSS-HEPES buffer to remove excess dye leaving 100 µl in each well. Plates were re-equilibrated to 37 °C for a few minutes.
Cells were excited with an Argon laser at 488 nm, and emission was measured through a 510-570 nm bandwidth emission filter (FLIPR™, Molecular Devices, Sunnyvale, CA). […] The peak increase in fluorescence intensity was recorded for each well. […] The peak fluorescence change in each drug-containing well was then expressed relative to the controls.
(§2) Compounds were tested in a high-throughput (HTS) or concentration-response (CoRe) format. In the HTS format, forty-four compounds per plate were examined in duplicates at a concentration of 10^-5 M. To generate concentration-response curves, four compounds per plate were tested in duplicates in a concentration range between 10^-5 and 10^-11 M. The duplicate values were averaged.

[2] = target: T2, human EP2 receptors (Homo sapiens, UniProt P43116); experiment: Competition binding, [3H]PGE2, HEK 293 cells stably expressing human EP2 receptors
T2 construct: expressed in transfected cells; host or cells: HEK 293
T2 sequence (P43116 whole entry): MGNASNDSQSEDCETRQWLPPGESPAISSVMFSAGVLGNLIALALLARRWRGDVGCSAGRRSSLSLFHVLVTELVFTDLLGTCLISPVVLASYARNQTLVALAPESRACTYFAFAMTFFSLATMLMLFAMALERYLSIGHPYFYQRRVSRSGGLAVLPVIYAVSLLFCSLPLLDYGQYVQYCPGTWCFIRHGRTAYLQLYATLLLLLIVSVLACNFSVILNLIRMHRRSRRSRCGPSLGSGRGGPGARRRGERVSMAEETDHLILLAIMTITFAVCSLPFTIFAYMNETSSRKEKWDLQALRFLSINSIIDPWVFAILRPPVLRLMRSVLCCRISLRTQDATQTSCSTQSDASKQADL
Experimental: Competition binding experiments were performed in a medium containing Hank's balanced salt solution, Hepes 20 mM, pH 7.3, membranes (∼60 µg protein) or 2x10^5 cells from HEK 293 cells stably expressing human EP2 receptors, [^3H]PGE2 (10 nM) and various concentrations of test compounds in a total volume of 300 µl. Reaction mixtures were incubated at 23 °C for 60 min, and were filtered over Whatman GF/B filters under vacuum. Filters were washed three times with 5 ml ice-cold buffer containing 50 mM Tris/HCl (pH 7.3). Non-specific binding was estimated in the presence of excess unlabeled PGE2 (10 µM). Binding data fitted to the binding model for a single class of binding sites, using nonlinear regression analysis.
(§3) HEK-293 cells stably expressing the human or feline FP receptor, or EP1, EP2, or EP4 receptors were washed with TME buffer, scraped from the bottom of the flasks, and homogenized for 30 sec using a Brinkman PT 10/35 polytron. TME buffer was added to achieve a final 40 ml volume in the centrifuge tubes (the composition of TME is 100 mM TRIS base, 20 mM MgCl2, […]; 10N HCl is added to achieve a pH of 7.4).
(§4) The cell homogenate was centrifuged at 19000 r.p.m. for 20 min at 4° C using a Beckman Ti-60 rotor. The resultant pellet was resuspended in TME buffer to give a final 1 mg/ml protein concentration, as determined by Biorad assay. Radioligand binding competition assays vs. [^3H-]17 -phenyl PGF2α (5 nM) were performed in a 100µl volume for 60 min. Binding reactions were started by adding plasma membrane fraction. The reaction was terminated by the addition of 4 ml ice-cold TRIS-HCl buffer and rapid filtration through glass fiber GF/B filters using a Brandel cell harvester. The filters were washed 3 times with ice-cold buffer and oven dried for one hour.
(§5) [^3H-] PGE2 (specific activity 180 Ci mmol) was used as the radioligand for EP receptors. [^3H] 17-phenyl PGF2α was employed for FP receptor binding studies. Binding studies employing EP1, EP2, EP4 and FP receptors were performed in duplicate in at least three separate experiments. A 200µl assay volume was used. Incubations were for 60 min at 25°C and were terminated by the addition of 4 ml of ice-cold 50 mM TRIS-HCl, followed by rapid filtration through Whatman GF/B filters and three additional 4 ml washes in a cell harvester (Brandel). Competition studies were performed using a final concentration of 5 nM [^3H]-PGE2, or 5 nM [^3H] 17-phenyl PGF2α and non-specific binding determined with 10^-5M of unlabeled PGE2, or 17-phenyl PGF2α, according to receptor subtype studied.

[3] = target: T3, EP4 receptors (Homo sapiens, UniProt P35408); experiment: Radioligand binding, EP4 receptor; conditions: Table 3; read-out: BINDING (Ki, nM) HEP4
T3 construct: expressed in transfected cells; host or cells: HEK-293
T3 sequence (P35408 whole entry): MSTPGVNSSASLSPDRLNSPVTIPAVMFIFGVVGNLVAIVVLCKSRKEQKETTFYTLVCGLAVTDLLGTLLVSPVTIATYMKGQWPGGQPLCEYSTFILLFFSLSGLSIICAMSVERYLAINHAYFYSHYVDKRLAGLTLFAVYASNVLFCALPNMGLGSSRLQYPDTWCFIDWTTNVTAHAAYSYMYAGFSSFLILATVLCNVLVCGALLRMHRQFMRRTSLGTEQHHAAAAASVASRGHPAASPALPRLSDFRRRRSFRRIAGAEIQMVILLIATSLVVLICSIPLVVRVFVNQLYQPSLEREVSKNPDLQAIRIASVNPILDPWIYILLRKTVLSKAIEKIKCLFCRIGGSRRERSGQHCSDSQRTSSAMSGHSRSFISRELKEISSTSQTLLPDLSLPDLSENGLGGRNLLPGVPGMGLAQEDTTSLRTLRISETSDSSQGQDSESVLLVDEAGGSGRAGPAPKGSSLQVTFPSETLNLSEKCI
Experimental: as §3, §4, §5

[4] = target: T4, hEP3A/Gqi5 (Homo sapiens, UniProt P43115); experiment: FLIPR calcium signal study, HEK-293(EBNA) cells; type: cell-based; conditions: Table 3; read-out: FUNCTIONAL (Ca2+, EC50, nM) HEP3A
T4 construct: expressed in transfected cells; host or cells: HEK-293(EBNA)
T4 sequence (P43115 1-390): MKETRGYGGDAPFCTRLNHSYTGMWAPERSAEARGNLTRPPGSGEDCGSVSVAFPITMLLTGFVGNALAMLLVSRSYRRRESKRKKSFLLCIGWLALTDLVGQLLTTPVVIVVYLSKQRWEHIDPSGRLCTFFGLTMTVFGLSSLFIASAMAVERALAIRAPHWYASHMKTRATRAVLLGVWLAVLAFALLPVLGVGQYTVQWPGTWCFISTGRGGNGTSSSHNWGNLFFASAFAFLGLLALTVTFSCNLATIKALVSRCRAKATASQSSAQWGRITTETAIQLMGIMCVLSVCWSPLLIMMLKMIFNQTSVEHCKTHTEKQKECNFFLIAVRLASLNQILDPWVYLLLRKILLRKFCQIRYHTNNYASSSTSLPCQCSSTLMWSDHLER
Experimental: (§6) HEK-293(EBNA) cells, stably expressing one type or subtype of recombinant human prostaglandin receptors (prostaglandin receptors expressed: hDP/Gqs5; hEP1; hEP2/Gqs5; hEP3A/Gqi5; hEP4/Gqs5; hFP; hIP; hTP), were cultured in 100 mm culture dishes in high-glucose DMEM medium containing 10% fetal bovine serum, 2 mM I-glutamine, 250 µg/ml geneticin (G418) and 200 µg/ml hygromycin B as selection markers, and 100 units/ml penicillin G, 100 µg/ml streptomycin and 0.25 µg/ml amphotericin B.
as §1
(§7) Cells were excited with an Argon laser at 488 nm, and emission was measured through a 510-570 nm bandwidth emission filter (FLIPR™, Molecular Devices, Sunnyvale, CA). Drug solution was added in a 50 µl volume to each well to give the desired final concentration. The peak increase in fluorescence intensity was recorded for each well. On each plate, four wells each served as negative (HBSS-HEPES buffer) and positive controls (standard agonists: BW245C (hDP); PGE2 (hEP1; hEP2/Gqs5; hEP3A/Gqi5; hEP4/Gqs5); PGF2α (hFP); carbacyclin (hIP); U-46619 (hTP), depending on receptor). The peak fluorescence change in each drug-containing well was then expressed relative to the controls.
as §2, with “averaged. In either, HTS or CoRe format each compound was tested on at least 3 separate plates using cells from different passages to give an n ≥ 3.” for “averaged.”

[5] = target: T5, HEP3 (Homo sapiens, UniProt P43115); experiment: Radioligand binding, EP3 receptor; conditions: Table 3; NA means not active
T5 sequence (P43115 1-390): T4 sequence (P43115 1-390)

[6] = target: T6, hTP (Homo sapiens, UniProt P21731); experiment: FLIPR calcium signal study, HEK-293(EBNA) cells; type: cell-based; conditions: Table 1; NA means not active; read-out: FUNCTIONAL (Ca2+, EC50, nM) HTP
T6 construct: expressed in transfected cells; host or cells: HEK-293(EBNA)
T6 sequence (P21731 1-343): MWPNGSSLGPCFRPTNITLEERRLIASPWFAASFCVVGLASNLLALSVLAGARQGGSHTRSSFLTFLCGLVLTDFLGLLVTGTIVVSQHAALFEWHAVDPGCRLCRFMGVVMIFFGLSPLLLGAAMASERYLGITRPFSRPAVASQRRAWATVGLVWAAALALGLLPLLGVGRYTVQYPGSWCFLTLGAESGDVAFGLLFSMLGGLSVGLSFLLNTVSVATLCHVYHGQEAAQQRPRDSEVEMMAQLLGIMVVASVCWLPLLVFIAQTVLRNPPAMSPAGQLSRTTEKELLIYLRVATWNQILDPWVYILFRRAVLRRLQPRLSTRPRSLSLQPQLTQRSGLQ
Experimental: as §6, §1, §7
as §2, with “averaged. In either, HTS or CoRe format each compound was tested on at least 3 separate plates using cells from different passages to give an n ≥ 3.” for “averaged.”

[7] = Table 2, unit inferred, read-out: FUNCTIONAL HEP2
[8] = Table 2, unit inferred, read-out: BINDING HEP2
[9] = Table 3, read-out: FUNCTIONAL (Ca2+, EC50, nM) HEP2
[10] = Table 3, read-out: BINDING (Ki, nM) HEP2

T1 sequence (P43116 whole entry): as the sequence (P43116 whole entry) above

Structure (SMILES) | EC50 [1, 7] | Ki [2, 8] | also measured
CCCCC(O)Cc1ccc([C@H]2CCC(=O)[C@@H]2CCCCCCC(=O)OC)cc1 (some centres unmarked) | 15000 nM | 4600 nM | 
CCCCC(O)Cc1ccc([C@H]2CCC(=O)[C@@H]2CCCCCCC(=O)O)cc1 (some centres unmarked) | 343 nM | 700 nM | 
CCCCCC(O)c1ccc([C@H]2CC[C@@H](F)[C@@H]2CCCCCCC(=O)O)cc1 (some centres unmarked) | 15000 nM | 600 nM | 
CCCCCC(O)c1ccc([C@H]2CC[C@@H](Cl)[C@@H]2CCCCCCC(=O)O)cc1 (some centres unmarked) | 15000 nM | 1900 nM | 
CCCCC(O)c1ccc([C@H]2CCC(=O)[C@@H]2CCCCCCC(=O)O)cc1 (some centres unmarked) |  | 1400 nM | EC50 [1]: 1410 nM
CCCCC(O)c1ccc([C@H]2CCC(=O)[C@@H]2CCCCCCC(=O)OC)cc1 (some centres unmarked) | 15000 nM | 15000 nM | 
CCCCCC(O)c1ccc([C@H]2CCC(=O)[C@@H]2CCCCCCC(=O)OC)s1 (some centres unmarked) |  | 7100 nM | EC50 [1]: 7100 nM
CCCCCC(O)c1ccc([C@H]2CCC(=O)[C@@H]2CCCCCCC(=O)O)s1 (some centres unmarked) |  | 600 nM | EC50 [1]: 769 nM
CCCCCC(O)c1ccc([C@H]2CCC=C2CCCCCCC(=O)O)cc1 (some centres unmarked) | 4880 nM | 2810 nM | 
CCCCCC(O)c1ccc([C@H]2CCC(=O)[C@@H]2CCCCCCC(=O)OC)cc1 (some centres unmarked) |  |  | Ki [3]: 15000 nM; EC50 [1, 9]: 2160 nM; EC50 [4]: 3090 nM; Ki [2, 10]: 4680 nM
CCCCCC(O)c1ccc([C@H]2CCC(=O)[C@@H]2CCCCCCC(=O)O)cc1 (some centres unmarked) |  |  | Ki [3]: 15000 nM; Ki [5]: 5200 nM; EC50 [1, 9]: 284 nM; EC50 [4]: 90 nM; Ki [2, 10]: 871 nM
CCCC1(C(O)c2cccc([C@H]3CCC(=O)[C@@H]3C/C=C\CCCC(=O)OC)c2)CCC1 (some centres unmarked) [Entry 1] |  |  | EC50 [6]: > 10000 nM
CCCC1(C(O)c2cccc([C@H]3CCC(=O)[C@@H]3C/C=C\CCCC(=O)O)c2)CCC1 (some centres unmarked) [Entry 2] |  |  | EC50 ([1]; Table 1, Ca2+ signal, NA means not active, read-out: FUNCTIONAL (Ca2+, EC50, nM) HEP 2): 2660 nM
